Results from patent publication US20120238488A1, “COMPOUNDS AND METHODS FOR TREATING NEOPLASIA” (priority 2009, published 2012).
pIC50: −log10 of the molar value. Where two headings read alike, the source gives them in different places.

Experiments:
[1] = test system: MB435 (Melanoma); test: SRB assay, MB435; format: cell-based, human; details: 48 h; for CC50 / GI50: Homo sapiens; for CC50: read-out: LC50; for GI50 / TGI: MB435, SRB
Description: (§1) SRB assays were performed according to standard National Cancer Institute Guidelines. Briefly, human tumor cells from different cancer panels were seeded into 96 well plates in 100 μL (plating densities ranging from 5-40,000 cells/well depending on the doubling time of individual cell lines) in serum-containing media for twenty-four hours prior to the addition of the compounds to be assayed. After 24 hours, one plate of each cell line was fixed in situ with trichloroacetic acid (TCA). The fixed slides were used to determine the cell population for each cell line at the time of drug addition (Tz). Each compound to be tested was solubilized in DMSO and the desired concentration was then added to the medium and diluted serially 1:10 to provide a total of five or ten drug concentrations plus control (in a final volume of 200 μL). The starting dose before any dilution was 100 uM for all compounds.
(§2) Following drug addition, each culture was incubated for forty-eight hours. The assay was terminated with the addition of cold TCA. The supernatant was discarded, and the plates were washed with tap water and air dried. Sulforhodamine B (SRB) solution was then added to each well. After staining, the bound stain was solubilized and the absorbance was read on an automated plate reader at a wavelength of 515 nm.
(§3) Using the absorbance measurements [time zero, (Tz), control growth, (C), and test growth in the presence of drug at the ten concentration levels (Ti)], the percentage growth was calculated at each of the drug concentrations levels. Percentage growth inhibition was calculated as:
(§4) [(Ti−Tz)/(C−Tz)]×100 for concentrations for which Ti>/=Tz
(§5) [(Ti−Tz)/Tz]×100 for concentrations for which Ti<Tz.
(§6) Three dose response parameters were calculated for each experimental agent. Growth inhibition of 50% (GI50) was calculated from [(Ti−Tz)/(C−Tz)]×100=50, which was the drug concentration resulting in a 50% reduction in the net protein increase (as measured by SRB staining) in control cells during the drug. The drug concentration resulting in total growth inhibition (TGI) was calculated from Ti=Tz. The LC50 (concentration of drug resulting in a 50% reduction in the measured protein at the end of the drug treatment as compared to that at the beginning) indicating a net loss of cells following treatment was calculated from [(Ti−Tz)/Tz]×100=−50.
(§7) Values were calculated for each of these three parameters when the level of activity was reached; however, if the effect was not reached or was exceeded, the value for that parameter was expressed as greater or less than the maximum or minimum concentration tested.
(§8) Table 4 summarizes results characterizing the effects of compound Nos. 120, 12, 61, 1, and 56 on GI50, which measures the cell growth inhibitory power of the compound, TGI, which measures cytostatic effect (TGI) and LC50, which signifies cytotoxic effect. Each of these parameters in Table 4 was calculated in a sulforhodamine B (SRB) assay, which provides a colorimetric measure of a compound's anti-cancer activity. SRB assays were performed with compounds of the invention in 22 different cell lines (shaded in light gray in Table 4), which represent nine different tumor panels (lung, melanoma, ovary, prostate, CNS, breast, pancreas colon and renal). Ouabain and digoxin were used as controls. Paclitaxel was added as a non-Na^+K^+-ATPase inhibitor control.

[2] = test system: DU145 (Prostate); test: SRB assay, DU145; format: cell-based, human; details: for TGI / GI50: DU145, SRB, 48 h; for CC50 / GI50: Homo sapiens; for CC50: DU-145, 48 h, read-out: LC50; for GI50: DU-145
Description: as §1, §2, §3, §4, §5, §6, §7, §8

[3] = test system: ERVK (Lung); test: SRB assay, ERVK; format: cell-based, human; details: 48 h; for TGI / GI50: ERVK, SRB; for CC50 / GI50: Homo sapiens; for CC50: read-out: LC50
Description: as §1, §2, §3, §4, §5, §6, §7, §8

[4] = test system: SF268 (CNS); test: SRB assay, SF268; format: cell-based; details: Homo sapiens; for CC50: read-out: LC50; for IC (TGI): read-out: TGI
Description: as §1, §2, §3, §4, §5, §6, §7, §8

[5] = test system: Na+/K+-ATPase (Adenosine 5′-Triphosphatase isolated from porcine cerebral cortex); test: Na+/K+-ATPase inhibitory activity, colorimetric Adenosine 5'-Triphosphatase Enzymatic Assay; format: biochemical
Description: The inhibitory effect of a compound of the invention on ATPase activity was assessed in vitro using the colorimetric Adenosine 5′-Triphosphatase Enzymatic Assay of Sigma (St. Louis, Mo.) according to the manufacturer's instructions. This assay utilizes Adenosine 5′-Triphosphatase isolated from porcine cerebral cortex. Each reaction was performed in a final volume of 250 μl using 0.5 units/ml enzyme in the presence of different inhibitors. […] IC50 values were determined using the Origin® program software (OriginLab, Northampton, Mass.).

[6] = test system: A549 (Lung); test: SRB assay, A549; format: cell-based, human; details: for TGI / GI50: A549, SRB, 48 h; for CC50 / GI50: Homo sapiens; for CC50: A549, 48 h, read-out: LC50
Description: as §1, §2, §3, §4, §5, §6, §7, §8

[7] = test system: CAKJ1 (Renal); test: SRB assay, CAKJ1; format: cell-based, human; details: 48 h; for TGI / GI50: CAKJ1, SRB; for CC50 / GI50: Homo sapiens; for CC50: read-out: LC50
Description: as §1, §2, §3, §4, §5, §6, §7, §8

[8] = test system: PCJ (Prostate); test: SRB assay, PCJ; format: cell-based; details: Homo sapiens, 48 h; for CC50: read-out: LC50; for GI50 / IC (TGI): PCJ, SRB
Description: as §1, §2, §3, §4, §5, §6, §7, §8

[9] = test system: OVCAR5 (Ovary); test: SRB assay, OVCAR5; format: cell-based, human; details: for CC50 / GI50: Homo sapiens; for CC50: OVCAR-5, 48 h, read-out: LC50; for GI50: OVCAR-5; for GI50 / TGI: OVCAR5, SRB, 48 h
Description: as §1, §2, §3, §4, §5, §6, §7, §8

[10] = test system: ADRRES (Ovary); test: SRB assay, ADRRES (multidrug resistant NCI-ADR-RES); format: cell-based, human; details: for TGI / GI50: ADRRES; for TGI / CC50 / GI50: 48 h; for CC50 / GI50: Homo sapiens, NCI/ADR-RES; for CC50: read-out: LC50; for anti-tumor action in multidrug resistant cell line NCI-ADR-RES: cells express high levels of MDR1 and P-glycoprotein
Description: NCI-ADR-RES cells have been classified as ovarian cancer cells by the National Cancer Institute.
as §1, §2, §3, §4, §5, §6, §7, §8
Table 4 also presents results with Compound Nos. 120, 12, 61, 1, and 56 in a well characterized drug resistant cell line, NCI-ADR-RES, that expresses high levels of MDR1 and P-glycoprotein.

[11] = test system: SKMEL28 (Melanoma); test: SRB assay, SKMEL28; format: cell-based, human; details: for CC50 / GI50: Homo sapiens; for CC50: SK-MEL-28, 48 h, read-out: LC50; for GI50: SK-MEL-28; for GI50 / TGI: SKMEL28, SRB, 48 h
Description: as §1, §2, §3, §4, §5, §6, §7, §8

[12] = test system: OVCAR3 (Ovary); test: SRB assay, OVCAR3; format: cell-based, human; details: for CC50 / GI50: Homo sapiens; for CC50: OVCAR-3, 48 h, read-out: LC50; for GI50: OVCAR-3; for GI50 / TGI: OVCAR3, SRB, 48 h
Description: as §1, §2, §3, §4, §5, §6, §7, §8

[13] = test system: HCT116 (Colon); test: SRB assay, HCT116; format: cell-based; details: Homo sapiens; for CC50: HCT-116, 48 h, read-out: LC50; for GI50 / IC (TGI): HCT-116, HCT116, SRB, 48 h
Description: as §1, §2, §3, §4, §5, §6, §7, §8

[14] = SF-268, SF268, SRB, 48 h, read-out: GI50
[15] = 0.5 units/ml enzyme, five concentrations 10^−5 to 10^−9M, read-out: Na+ K+ Inhibitory Activity (IC50)

| Structure (SMILES) | CC50 [1] | GI50 [1] | TGI [1] | TGI [2] | CC50 [2] | GI50 [2] | TGI [3] | CC50 [3] | GI50 [3] | CC50 ([4]; SF-268, 48 h) | TGI [6] | CC50 [6] | GI50 [6] | TGI [7] | CC50 [7] | GI50 [7] | CC50 [8] | GI50 [8] | IC (TGI) [8] | CC50 [9] | further results |
| --- | --- | --- | --- | --- | --- | --- | --- | --- | --- | --- | --- | --- | --- | --- | --- | --- | --- | --- | --- | --- | --- |
| C[C@]12CCC(=NOC3CCNC3)C=C1CCC1C2CC[C@]2(C)C(=O)CCC12 (stereo partly drawn) [Compound 61, (10R,13S)-10,13-dimethyl-3-(pyrrolidin-3-yloxyimino)-2,3,7,8,9,10,11,12,13,14,15,16-dodecahydro-1H-cyclopenta[a]phenanthren-17(6H)-one] | 8.2 µM | 0.649 µM | 3.3784 µM | 0.6262 µM | 0.895 µM | 0.357 µM | 2.4710 µM | 6.84 µM | 0.493 µM | 8.03 µM | 0.5149 µM | 0.823 µM | 0.207 µM | 1.2516 µM | 6.65 µM | 0.269 µM | 7.42 µM | 0.281 µM | 1.81 µM | 9.06 µM | GI50 [4, 14]: 0.567 µM; IC (TGI) ([4]; SF-268, SF268, SRB, 48 h): 3.02 µM; Na+K+ ATPase inhibitory activity (in words) [5]: strong Na+K+ ATPase inhibitory activities; pIC50 [5, 15]: 6.30; GI50 [9]: 3.85 µM; TGI [9]: 6.4549 µM; TGI ([10]; SRB): 1.0156 µM; CC50 [10]: 6.07 µM; GI50 ([10]; SRB): 0.564 µM; anti-tumor action in multidrug resistant cell line NCI-ADR-RES ([10]; SRB): potent anti-tumor action; CC50 [11]: 12.3 µM; GI50 [11]: 0.993 µM; TGI [11]: 6.6230 µM; CC50 [12]: 6.12 µM; GI50 [12]: 0.355 µM; TGI [12]: 0.8004 µM; CC50 [13]: 9.26 µM; GI50 [13]: 0.286 µM; IC (TGI) [13]: 1.31 µM |
| C[C@]12CCC(=NOCCN)C=C1CCC1C2CC[C@@]2(C)C1CC[C@@H]2O (stereo partly drawn) [Compound 120, (1S,9aR,11aS)-17-hydroxy-10,13-dimethyl-6,7,8,9,10,11,12,13,14,15,16,17-dodecahydro-1H-cyclopenta[a]phenanthren-3(2H)-one O-2-aminoethyl oxime] | 98.9 µM | 7.29 µM | 38.95 µM | 13.54 µM | 68.5 µM | 5.87 µM | 38.23 µM | ≥ 105 µM | 4.57 µM | 20.4 µM | 62.82 µM | ≥ 179 µM | 6.91 µM | 9.90 µM | 61 µM | 4.91 µM | 29.4 µM | 4.57 µM | 14.2 µM | 87.1 µM | GI50 [4, 14]: 4.65 µM; IC (TGI) ([4]; SF-268, SF268, SRB, 48 h): 9.08 µM; Na+K+ ATPase inhibitory activity (in words) [5]: strong Na+K+ ATPase inhibitory activities; pIC50 [5, 15]: 6.05; GI50 [9]: 20.5 µM; TGI [9]: 53.80 µM; TGI ([10]; SRB): 42.91 µM; CC50 [10]: 81.9 µM; GI50 ([10]; SRB): 8.73 µM; GI50 in NCI-ADR-RES cells compared to non-resistant MCF-7 cells ([10]; SRB): the same GI50 value; anti-tumor action in multidrug resistant cell line NCI-ADR-RES ([10]; SRB): potent anti-tumor action; CC50 [11]: 79.6 µM; GI50 [11]: 19.9 µM; TGI [11]: 49.74 µM; CC50 [12]: > 100 µM; GI50 [12]: 6.5 µM; TGI [12]: 41.51 µM; CC50 [13]: 39.2 µM; GI50 [13]: 4.28 µM; IC (TGI) [13]: 16.1 µM |
| C[C@H]1O[C@@H](O[C@H]2[C@@H](O)C[C@H](O[C@H]3[C@@H](O)C[C@H](O[C@H]4CC[C@@]5(C)[C@H](CC[C@@H]6[C@@H]5C[C@@H](O)[C@]5(C)[C@@H](C7=CC(=O)OC7)CC[C@]65O)C4)O[C@@H]3C)O[C@@H]2C)C[C@H](O)[C@@H]1O [Digoxin, reference compound] | 7.69 µM | 0.07 µM | 0.53 µM | 0.07 µM | 0.36 µM | 0.03 µM | 0.09 µM | 0.68 µM | < 0.01 µM | 0.1 µM | 0.06 µM | 1.14 µM | < 0.001 µM | 0.07 µM | 0.2 µM | < 0.01 µM | 0.3 µM | < 0.08 µM | 0.1 µM | 0.84 µM | GI50 ([4]; SF-268, 48 h): < 0.08 µM; IC (TGI) ([4]; SF-268, 48 h): < 0.08 µM; pIC50 ([5]; read-out: Na+K+ ATPase inhibitory activity IC50): 6.69; GI50 [9]: < 0.01 µM; TGI [9]: 0.43 µM; TGI ([10]; SRB): 0.10 µM; CC50 [10]: 0.75 µM; GI50 ([10]; SRB): 0.04 µM; CC50 [11]: > 100 µM; GI50 [11]: 0.08 µM; TGI [11]: 6.50 µM; CC50 [12]: 22.2 µM; GI50 [12]: < 0.01 µM; TGI [12]: 2.65 µM; CC50 [13]: > 50 µM; GI50 [13]: < 0.08 µM; IC (TGI) [13]: 0.7 µM |
